Experimental data taken from PubChem BioAssay AID276 (DTP/NCI, 2004).
Where “and” joins values, the source holds several entries; their conditions need not be identical. Identical values can stand only once. Inconclusive results and toxic doses are left out. How the source made its calls: active means survival T/C of 150% or more; inactive means T/C below 125% in these data.

System: B6C3F1 mice, Lewis lung carcinoma iv, survival T/C
Experiment: NCI In Vivo Anticancer Drug Screen. Data for tumor model Lewis Lung Carcinoma (intravenous) in B6C3F1 mice
Settings: endpoint: median survival time, higher = longer survival
Summary of the method: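 Mice carrying transplanted tumors received test compound; survival in the treated group was divided by that of the vehicle-treated control group to give the T/C value.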

[1] = dose: 1.56 mg/kg/injection, schedule: Q01DX009 (ip), vehicle: saline
[2] = dose: 3.12 mg/kg/injection, schedule: Q01DX009 (ip), vehicle: saline
[3] = dose: 6.25 mg/kg/injection, schedule: Q01DX009 (ip), vehicle: saline
[4] = dose: 12.5 mg/kg/injection, schedule: Q01DX009 (ip), vehicle: saline
[5] = dose: 25.0 mg/kg/injection, schedule: Q01DX009 (ip), vehicle: saline
[6] = dose: 50.0 mg/kg/injection, schedule: Q01DX009 (ip), vehicle: saline
[7] = dose: 100.0 mg/kg/injection, schedule: Q01DX009 (ip), vehicle: saline
[8] = dose: 200.0 mg/kg/injection, schedule: Q01DX009 (ip), vehicle: saline
[9] = dose: 400.0 mg/kg/injection, schedule: Q01DX009 (ip), vehicle: saline
[10] = dose: 12.5 mg/kg/injection, schedule: Q01DX009 (ip), vehicle: saline with Tween-80
[11] = dose: 25.0 mg/kg/injection, schedule: Q01DX009 (ip), vehicle: saline with Tween-80
[12] = dose: 50.0 mg/kg/injection, schedule: Q01DX009 (ip), vehicle: saline with Tween-80
[13] = dose: 100.0 mg/kg/injection, schedule: Q01DX009 (ip), vehicle: saline with Tween-80
[14] = dose: 200.0 mg/kg/injection, schedule: Q01DX009 (ip), vehicle: saline with Tween-80

Measured: T/C

CN1CCN(c2ccc([N+](=O)[O-])c3no[n+]([O-])c23)CC1
inactive: dose: 5.0 mg/kg/injection, schedule: Q01DX009 (ip), vehicle: saline with Tween-80 120 % of control | dose: 10.0 mg/kg/injection, schedule: Q01DX009 (ip), vehicle: saline with Tween-80 111 % of control

Cc1c2cc[n+](CCN3CCCCC3)cc2c(C)c2c1[nH]c1ccc(O)cc12
inactive: [1] 94 % of control | [2] 116 % of control | [3] 106 % of control | [4] 103 % of control | [5] 104 % of control

CC[PH+](CC)CC[S-].CC[PH+](CC)CC[S-].[Au+].[Au+]
inactive: dose: 2.5 mg/kg/injection, schedule: Q01DX009 (ip), vehicle: Klucel (hydroxypropylcellulose) (HPC) 99 % of control | dose: 5.0 mg/kg/injection, schedule: Q01DX009 (ip), vehicle: Klucel (hydroxypropylcellulose) (HPC) 100 % of control | dose: 10.0 mg/kg/injection, schedule: Q01DX009 (ip), vehicle: Klucel (hydroxypropylcellulose) (HPC) 98 % of control | dose: 20.0 mg/kg/injection, schedule: Q01DX009 (ip), vehicle: Klucel (hydroxypropylcellulose) (HPC) 96 % of control

CC1=CC2C(O)(CC(CO)=CC3C4C(C)(C)C4(OC(=O)c4ccccc4)C(OC(=O)c4ccccc4)C(C)C32O)C1=O (stereo not drawn)
inactive: dose: 0.12 mg/kg/injection, schedule: Q01DX009 (ip), vehicle: saline with Tween-80 103 % of control | dose: 0.25 mg/kg/injection, schedule: Q01DX009 (ip), vehicle: saline with Tween-80 107 % of control | dose: 0.5 mg/kg/injection, schedule: Q01DX009 (ip), vehicle: saline with Tween-80 95 % of control | dose: 1.0 mg/kg/injection, schedule: Q01DX009 (ip), vehicle: saline with Tween-80 108 % of control | dose: 2.0 mg/kg/injection, schedule: Q01DX009 (ip), vehicle: saline with Tween-80 99 % of control

Cc1cc(NC(=S)SCc2ccc3c(c2)OCO3)ccc1Cl
inactive: dose: 25.0 mg/kg/injection, schedule: Q01DX009 (ip), vehicle: Klucel (hydroxypropylcellulose) (HPC) 114 % of control | dose: 50.0 mg/kg/injection, schedule: Q01DX009 (ip), vehicle: Klucel (hydroxypropylcellulose) (HPC) 114 % of control | dose: 100.0 mg/kg/injection, schedule: Q01DX009 (ip), vehicle: Klucel (hydroxypropylcellulose) (HPC) 115 % of control

CC1(C)OCC2OC=CC(=O)C2O1 (stereo not drawn)
inactive: [5] 98 % of control | [6] 98 % of control | [7] 105 % of control | [8] 102 % of control | [9] 104 % of control

COC(=O)Nc1nc2ccc(C3(c4ccc(F)cc4)OCCO3)cc2[nH]1
inactive: [1] 97 % of control | [2] 106 % of control | [3] 102 % of control | [4] 104 % of control | [5] 117 % of control

O=C1N[C@@H]2C(=C[C@H](O)[C@@H](O)[C@H]2O)c2cc3c(c(O)c21)OCO3
inactive: dose: 0.62 mg/kg/injection, schedule: Q01DX009 (ip), vehicle: saline with Tween-80 93 % of control | dose: 0.63 mg/kg/injection, schedule: Q01DX009 (ip), vehicle: saline with Tween-80 112 % of control | dose: 1.25 mg/kg/injection, schedule: Q01DX009 (ip), vehicle: saline with Tween-80 107 % of control and 109 % of control | dose: 2.5 mg/kg/injection, schedule: Q01DX009 (ip), vehicle: saline with Tween-80 107 % of control and 117 % of control

COc1cc2cc3cc4cc(OC)c(OC)cc4c(C)[n+]3cc2cc1OC (tested in a mixture with another compound)
inactive: [4] 112 % of control | [5] 106 % of control | [6] 117 % of control | [7] 120 % of control

COC(=O)C(N)Cc1ccc(O)c(O)c1 (stereo not drawn)
inactive: [4] 107 % of control | [5] 103 % of control | [6] 101 % of control | [7] 109 % of control | [8] 92 % of control | [9] 95 % of control | dose: 800.0 mg/kg/injection, schedule: Q01DX009 (ip), vehicle: saline 95 % of control

Brc1c(NC2=NCCN2)ccc2nccnc12
inactive: [1] 103 % of control | [2] 114 % of control | [3] 100 % of control | [4] 101 % of control | [5] 101 % of control | [6] 112 % of control

O=CC(O)C(O)C(O)C(O)C(=O)O.[NH-]C1CCCCC1[NH-].[Pt+2] (stereo not drawn)
inactive: dose: 0.2 mg/kg/injection, schedule: Q01DX009 (ip), vehicle: saline 93 % of control | dose: 0.39 mg/kg/injection, schedule: Q01DX009 (ip), vehicle: saline 94 % of control | dose: 0.78 mg/kg/injection, schedule: Q01DX009 (ip), vehicle: saline 93 % of control | [1] 106 % of control

COc1cccc2c1C(=O)c1c(O)c3c(c(O)c1C2=O)CC(O)(C(=O)CO)CC3OC1CC(N)C(O)C(C)O1 (stereo not drawn)
inactive: [1] 110 % of control | dose: 1.87 mg/kg/injection, schedule: Q01DX009 (ip), vehicle: water 107 % of control | [2] 109 % of control | dose: 3.75 mg/kg/injection, schedule: Q01DX009 (ip), vehicle: water 107 % of control | dose: 4.5 mg/kg/injection, schedule: Q01DX009 (ip), vehicle: water 101 % of control | [3] 123 % of control | dose: 7.5 mg/kg/injection, schedule: Q01DX009 (ip), vehicle: water 109 % of control | dose: 9.0 mg/kg/injection, schedule: Q01DX009 (ip), vehicle: water 112 % of control | dose: 15.0 mg/kg/injection, schedule: Q01DX009 (ip), vehicle: water 119 % of control | dose: 18.0 mg/kg/injection, schedule: Q01DX009 (ip), vehicle: water 123 % of control | [5] 119 % of control | [6] 90 % of control

NC(=S)N/N=C/c1ccc(OC(=O)COc2ccc(Cl)cc2)cn1
inactive: [10] 99 % of control and 100 % of control | [11] 92 % of control and 99 % of control | [12] 95 % of control and 101 % of control | [13] 92 % of control and 107 % of control | [14] 116 % of control

OC1(CSc2ccccc2)CCCCC1
inactive: [10] 95 % of control and 119 % of control | [11] 107 % of control | [12] 94 % of control and 114 % of control | [13] 103 % of control and 106 % of control | [14] 100 % of control and 105 % of control | dose: 400.0 mg/kg/injection, schedule: Q01DX009 (ip), vehicle: saline with Tween-80 108 % of control and 110 % of control

CNc1cccnc1/C=N/NC(N)=S
inactive: [10] 104 % of control | [11] 122 % of control | [12] 90 % of control

O=C1OC(=O)[C@H]2[C@@H]1[C@H]1C=C[C@@H]2OC1=O
inactive: dose: 12.5 mg/kg/injection, schedule: Q01DX009 (ip), vehicle: suspension in saline 104 % of control | dose: 25.0 mg/kg/injection, schedule: Q01DX009 (ip), vehicle: suspension in saline 119 % of control | dose: 50.0 mg/kg/injection, schedule: Q01DX009 (ip), vehicle: suspension in saline 98 % of control | dose: 100.0 mg/kg/injection, schedule: Q01DX009 (ip), vehicle: suspension in saline 99 % of control | dose: 200.0 mg/kg/injection, schedule: Q01DX009 (ip), vehicle: suspension in saline 104 % of control

CCc1nc(N)nc(N)c1-c1ccc(Cl)c(N=[N+]=[N-])c1
inactive: dose: 12.5 mg/kg/injection, schedule: Q01DX009 (ip), vehicle: distilled water + Tween-80 97 % of control | dose: 25.0 mg/kg/injection, schedule: Q01DX009 (ip), vehicle: distilled water + Tween-80 100 % of control | dose: 50.0 mg/kg/injection, schedule: Q01DX009 (ip), vehicle: distilled water + Tween-80 100 % of control | dose: 100.0 mg/kg/injection, schedule: Q01DX009 (ip), vehicle: distilled water + Tween-80 106 % of control and 110 % of control | dose: 200.0 mg/kg/injection, schedule: Q01DX009 (ip), vehicle: distilled water + Tween-80 119 % of control

CCCCCCCCCCCCCC#CC(=O)O
inactive: dose: 3.12 mg/kg/injection, schedule: Q01DX009 (ip), vehicle: saline with Tween-80 97 % of control | dose: 6.25 mg/kg/injection, schedule: Q01DX009 (ip), vehicle: saline with Tween-80 93 % of control | [10] 101 % of control | [11] 89 % of control | [12] 93 % of control

C=C(C)C1C2CC3(C)C4(CO4)C4OC4C3(O)C1C(=O)O2 (stereo not drawn)
inactive: dose: 0.25 mg/kg/injection, schedule: Q01DX008 (ip), vehicle: Klucel (hydroxypropylcellulose) (HPC) 108 % of control | dose: 0.5 mg/kg/injection, schedule: Q01DX008 (ip), vehicle: Klucel (hydroxypropylcellulose) (HPC) 102 % of control | dose: 1.0 mg/kg/injection, schedule: Q01DX008 (ip), vehicle: Klucel (hydroxypropylcellulose) (HPC) 108 % of control | dose: 2.0 mg/kg/injection, schedule: Q01DX008 (ip), vehicle: Klucel (hydroxypropylcellulose) (HPC) 105 % of control

N=c1c(C(=O)OCc2ccccc2)ncc(CCl)n1O
inactive: [11] 96 % of control | [12] 97 % of control | [13] 109 % of control | [14] 92 % of control
